Test results reported in US20230414601A1, “INJECTABLE COMPOSITION CONTAINING CASPASE INHIBITOR, AND PREPARATION METHOD THEREFOR” (LG CHEM, LTD., priority 2020, published 2023).

Assay: Test for API loss according to continuous phase
Type: physicochemical
Method: A dispersed phase was prepared by dissolving a certain amount of the Test Compound (API) in an organic solvent (dichloromethane, DCM), and 1 mL of the prepared dispersed phase was added to each continuous phase and then stirred to measure the amount of the API extracted into the continuous phase.

For CC(C)[C@@]1(C(=O)N[C@H]2CC(=O)O[C@]2(O)CF)CC(c2nccc3ccccc23)=NO1 [Test Compound, (R)-N-((2S,3S)-2-(fluoromethyl)-2-hydroxy-5-oxotetrahydrofuran-3-yl)-5-isopropyl-3-(isoquinolin-1-yl)-4,5-dihydroisoxazole-5-carboxamide], the “Amount of API extracted into continuous phase (%)” value (from here on “Amount … (%)”) (continuous phase 0.01N HCl) was 4.0%, the “Amount … (%)” value (continuous phase DW, dispersed phase API in DCM, 1 mL) was 3.7% and the “Amount … (%)” value (continuous phase PVA 1 wt %) was 24.9%. For the same molecule, the “Amount … (%)” value (continuous phase PVA 1 wt % + 1N HCl) was 13.1% and the “Amount … (%)” value (continuous phase PVA 5 wt %) was 59.3%.
